Assays:
[1] = 100° C.; cited from earlier work
[2] = system: gut flora (Akkermansia bacteria, Firmicutes bacteria, Bacteroidetes bacteria); assay: Gut flora improving action in high fat diet mouse model, 16S rRNA gene analysis of feces after eight weeks of intake; assay type: in vivo, Mice (C57BL/6J); conditions: high fat diet mice; for abundance ratio of Firmicutes bacteria to Bacteroidetes bacteria: eight weeks, High fat diet group 7.4, Regular diet group 4.2; for abundance ratio of Firmicutes bacteria to Bacteroidetes bacteria / abundance proportion of Akkermansia bacteria in the gut flora: feces; for change in the abundance ratio of Firmicutes bacteria to Bacteroidetes bacteria, in words: oral intake for eight weeks; for change in the abundance ratio of Firmicutes bacteria to Bacteroidetes bacteria, in words / abundance proportion of Akkermansia bacteria in the gut flora: compared to High fat diet group; for abundance proportion of Akkermansia bacteria in the gut flora: oral intake once a day for eight weeks
Excerpt: The influence of xanthohumol and isoxanthohumol on the gut flora was examined by the following procedure using a high fat diet mouse model. […] The dosage is an intake (mg) of the test substance per kg body weight per day. In the table, “Regular diet” is control diet “[…]” (Research Diets), and “60 kcal % High-fat diet” is very high-fat diet “D12492” (Research Diets); “Catechins” is a preparation “Polyphenon […]” (product name, Mitsui Morin Co., Ltd.). Catechins were used as a positive control. Xanthohumol and isoxanthohumol were the standard samples (purity of 95% or higher) obtained in Preparation Example 1. [table] Mice (C57BL/6J, male, 7 weeks of age, CLEA Japan, Inc.) were purchased, and they were quarantined and acclimatized for one week. […] The selected animals were divided into groups (n=8 in each group) in the group structure shown in Table 1 by the stratified continuous randomization method based on body weight at the end of the acclimatization period. They were fed with free access to specific basic feed and water. The test substance was orally fed once a day for eight weeks. A dosing solution containing a mixture of the test substance and a solvent was used to administer the test substance. The solvent was a 0.5 wt % sodium carboxymethylcellulose (CMC) aqueous solution. The volume of the dosing solution to be administered to each mouse was 10 mL/kg. The amount of the test substance and the volume of the solution were calculated based on the latest body weight. 16S rRNA gene analysis was performed on feces (fresh feces) collected eight weeks after the start of intake of the test substance. 16S rRNA gene analysis was performed by the method described in Examples of JP 2018-8911 A. The abundance proportions (abundance ratio) of intestinal bacteria found in the feces were determined by the gene analysis as the abundance ratio of bacteria in the gut flora. FIG. 1 is a graph showing the abundance proportion (group average) of bacteria in the gut flora of each group. The abundance proportion shown in FIG. 1 is the ratio (occupancy) of each species of bacteria to the total bacterial count in the feces. Verrucomicrobia in FIG. 1 is a higher rank to which Akkermansia bacteria belong. All the Verrucomicrobia bacteria in this analysis were Akkermansia bacteria. The dosage (mg/kg) of isoxanthohumol (IXN) and xanthohumol (XN) in FIG. 1 is the intake (mg) of the test substance per kg body weight per day. […] The abundance ratio of Firmicutes bacteria to Bacteroidetes bacteria was as follows: 4.2 in Regular diet group; 7.4 in High fat diet group; 1.7 in Catechins group; 3.2 in Xanthohumol (60 mg/kg) group; 6.0 in Isoxanthohumol (60 mg/kg) group (Group No. 5); and 2.4 in Isoxanthohumol (180 mg/kg) group (Group No. 6).

[3] = system: gut flora (Akkermansia bacteria); assay: Example 2: 16S rRNA gene analysis of cecal contents two weeks after the start of intake; assay type: in vivo; conditions: 60 mg/kg body weight per day, compared to High fat diet group
Protocol: 16S rRNA gene analysis was performed on feces (fresh feces) collected eight weeks after the start of intake of the test substance. 16S rRNA gene analysis was performed by the method described in Examples of JP 2018-8911 A. The abundance proportions (abundance ratio) of intestinal bacteria found in the feces were determined by the gene analysis as the abundance ratio of bacteria in the gut flora.
Another test was performed using isoxanthohumol as the test substance, with partial modification in the group structure and dosage design. In this test, the cecal contents were collected two weeks after the start of intake of the test substance, and 16S rRNA gene analysis was performed in the same manner as described above.

## COc1cc(O)c(CC=C(C)C)c2c1C(=O)CC(c1ccc(O)cc1)O2 (stereo not drawn) [Isoxanthohumol]
[1]
  stability at high temperature: stable
[2]; 60 mg/kg/day oral
  abundance ratio of Firmicutes bacteria to Bacteroidetes bacteria: 6.0
[2]; 180 mg/kg/day oral
  abundance ratio of Firmicutes bacteria to Bacteroidetes bacteria: 2.4
[2]
  change in the abundance ratio of Firmicutes bacteria to Bacteroidetes bacteria, in words: decrease
  abundance proportion of Akkermansia bacteria in the gut flora: increase
[3]
  abundance ratio of Akkermansia bacteria in the gut flora: increase

## COc1cc(O)c(CC=C(C)C)c(O)c1C(=O)/C=C/c1ccc(O)cc1 [Xanthohumol]
[2]; 60 mg/kg/day oral
  abundance ratio of Firmicutes bacteria to Bacteroidetes bacteria: 3.2
[2]
  change in the abundance ratio of Firmicutes bacteria to Bacteroidetes bacteria, in words: decrease
  abundance proportion of Akkermansia bacteria in the gut flora: increase
